Details: Liquid; for vapor or sublimation pressure: Closed cell (Static) method

CCF [fluoroethane]
Details	mass density [kg/m3]	vapor or sublimation pressure [kPa]
231.49 K	822.41	83.13
234.21 K	817.05	94.43
236.99 K	812.28	107.29
239.38 K	807.75	119.32
242.26 K	802.85	135.31
244.45 K	798.89	148.5
247.17 K	794.45	166.36
249.55 K	790.12	183.2
252.04 K	784.97	202.06
254.66 K	781.18	223.94
256.86 K	777.42	243.51
259.79 K	772.38	271.62
261.53 K	769.17	289.32
264.92 K	762.96	326.52
267.46 K	758.21	356.63
270.02 K	753.26	389.01
272.57 K	748.47	423.54
275.14 K	743.66	460.69
277.69 K	738.45	499.68
280.25 K	734.48	542.23
282.93 K	728.08	587.98
285.36 K	724.27	633.63
288.87 K	715.99	701.87
290.5 K	713.52	736.6
293.49 K	706.47	801.35
296.62 K	699.98	874.83
298.35 K	696.18	917.13
301.4 K	689.76	996.4
303.42 K	685.09	1051
305.56 K	680.24	1111.4
308.36 K	673.98	1195.1
311.02 K	667.87	1278.7
313.56 K	661.98	1362.7
316.06 K	655.89	1439.2
318.06 K	650.99	1511.1
320.34 K	645.22	1596.5
322.83 K	638.81	1683.8
325.41 K	632.16	1800.8
328.04 K	625.04	1922.5
330.58 K	617.82	2035.8
332.88 K	609.12	2105.8
335.61 K	599.54	2262.5
337.83 K	591.63	2369.9
340.19 K	583.39	2489.5
343.01 K	573.25	2639

FC(F)Cl [chlorodifluoromethane]
Details	mass density [kg/m3]	vapor or sublimation pressure [kPa]
237.03 K	1396.88	125.48
242.05 K	1380.58	156.52
248.23 K	1361.7	202.41
250.79 K	1352.02	223.86
257.12 K	1333.18	285.6
262.27 K	1317.65	343.76
267.03 K	1302.17	405.65
272.37 K	1283.62	485.71
276.67 K	1268.86	558.12
283.21 K	1244.97	682.58
287.52 K	1231.04	774.37
294.06 K	1206.17	932.29
298.34 K	1188.92	1047.7
303.44 K	1168.12	1201.9
306.98 K	1156.73	1316.4
